Reference: patent US20240327412A1, “FACTOR XIIA INHIBITORS” (KALVISTA PHARMACEUTICALS LIMITED, priority 2021, published 2024)

Assays:
FXa = FXa (Homo sapiens, UniProt P00742); experiment: Related protease inhibition: FXa (fluorogenic substrate at Km); format: biochemical; conditions: class symbols per Table 18
Procedure, shortened: (§1)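 Enzymatic activity was followed as release of fluorescence from a fluorogenic substrate over 5 min at 25° C, with test compound at various concentrations. The linear rate per minute was converted to % activity, and IC50 was taken as the concentration giving 50% inhibition of uninhibited enzyme activity.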

Human Factor XIIa = biological target: T1, Human Factor XIIa (Homo sapiens, UniProt P00748); experiment: Determination of FXIIa inhibition (fluorogenic substrate H-DPro-Phe-Arg-AFC, IC50 assay); format: biochemical; conditions: substrate at Km concentration, 25° C.; category scale; read-out: Human FXII IC50 (nm)
T1 construct: Proteolytic cleavage of FXII to heavy and light chains of FXIIa dramatically increases catalytic activity; purchased Enzyme Research Laboratories
T1 sequence (P00748 373-615 limits assumed): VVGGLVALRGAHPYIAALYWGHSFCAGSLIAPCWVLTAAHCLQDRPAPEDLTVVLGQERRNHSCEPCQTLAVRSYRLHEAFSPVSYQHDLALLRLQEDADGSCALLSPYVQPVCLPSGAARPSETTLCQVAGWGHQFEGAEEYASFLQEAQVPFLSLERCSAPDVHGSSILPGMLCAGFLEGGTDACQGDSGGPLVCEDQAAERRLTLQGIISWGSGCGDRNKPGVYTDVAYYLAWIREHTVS
T1 sequence (P00748 20-372 partner limits assumed): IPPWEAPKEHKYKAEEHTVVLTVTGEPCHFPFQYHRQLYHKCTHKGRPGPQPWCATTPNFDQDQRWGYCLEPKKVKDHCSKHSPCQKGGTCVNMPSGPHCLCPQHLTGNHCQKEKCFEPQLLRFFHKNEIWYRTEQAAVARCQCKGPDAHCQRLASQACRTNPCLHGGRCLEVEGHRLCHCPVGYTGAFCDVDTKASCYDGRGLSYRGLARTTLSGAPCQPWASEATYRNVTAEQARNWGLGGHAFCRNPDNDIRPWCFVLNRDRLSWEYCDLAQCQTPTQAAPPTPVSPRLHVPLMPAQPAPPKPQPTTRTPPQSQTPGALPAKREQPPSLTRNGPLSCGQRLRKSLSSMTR
Procedure, shortened: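 Human FXIIa incubated at 25° C. with fluorogenic H-DPro-Phe-Arg-AFC at its Km concentration plus varying compound levels. Linear fluorescence increase over 5 min taken as % activity; IC50 is concentration halving uninhibited activity.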

Trypsin = Trypsin (Homo sapiens, UniProt P07477); experiment: Related protease inhibition: Trypsin (fluorogenic substrate at Km); format: biochemical; conditions: class symbols per Table 18
Method: (§2) In vitro inhibition of related proteases was determined using an IC50 assay based on standard literature methods (see e.g. Shori et al., Biochem. Pharmacol., 1992, 43, 1209; Bouckaert et al., European Journal of Medicinal Chemistry 110 (2016) 181). Human serine protease enzyme Plasma Kallikrein, KLK1, FXa, Plasmin, Thrombin and Trypsin were assayed for enzymatic activity using an appropriate fluorogenic substrate at Km concentration, FXIa at fixed substrate concentration of 100 μM and various concentrations of the test compound. Protease activity was measured by monitoring the accumulation of liberated fluorescence from the substrate over 5 min at 25° C. The linear rate of fluorescence increase per minute was expressed as percentage (%) activity. IC50 values were calculated as the concentration of inhibitor giving 50% inhibition of the uninhibited enzyme activity (100%).

Plasmin = Plasmin (Homo sapiens, UniProt P00747); experiment: Related protease inhibition: Plasmin (fluorogenic substrate at Km); format: biochemical; conditions: class symbols per Table 18
Plasmin, sequence (P00747 581-810 limits assumed): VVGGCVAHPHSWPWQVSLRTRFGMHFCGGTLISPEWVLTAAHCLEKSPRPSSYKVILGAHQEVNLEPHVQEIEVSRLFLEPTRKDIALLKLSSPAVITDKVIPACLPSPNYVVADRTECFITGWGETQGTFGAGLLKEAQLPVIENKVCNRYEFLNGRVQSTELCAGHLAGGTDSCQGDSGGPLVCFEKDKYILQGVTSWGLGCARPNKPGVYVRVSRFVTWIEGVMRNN
Plasmin, sequence (P00747 97-580 partner limits assumed): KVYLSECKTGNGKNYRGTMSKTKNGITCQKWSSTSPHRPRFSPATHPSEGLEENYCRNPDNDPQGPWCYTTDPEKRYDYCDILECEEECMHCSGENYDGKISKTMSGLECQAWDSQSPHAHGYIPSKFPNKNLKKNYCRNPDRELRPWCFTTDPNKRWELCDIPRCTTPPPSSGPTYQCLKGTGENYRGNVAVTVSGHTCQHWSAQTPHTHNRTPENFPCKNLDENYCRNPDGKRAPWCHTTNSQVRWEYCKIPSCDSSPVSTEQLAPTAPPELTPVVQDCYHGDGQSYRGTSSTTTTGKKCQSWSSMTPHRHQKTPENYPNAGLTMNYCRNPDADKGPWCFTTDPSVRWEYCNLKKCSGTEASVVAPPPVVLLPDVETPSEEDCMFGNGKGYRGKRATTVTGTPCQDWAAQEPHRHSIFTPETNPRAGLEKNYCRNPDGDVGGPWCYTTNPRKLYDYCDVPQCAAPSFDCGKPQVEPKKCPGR
Method: as §2

KLK1 = KLK1 (Homo sapiens, UniProt P06870); experiment: Related protease inhibition: KLK1 (fluorogenic substrate at Km); format: biochemical; conditions: class symbols per Table 18
KLK1, sequence (P06870 25-262): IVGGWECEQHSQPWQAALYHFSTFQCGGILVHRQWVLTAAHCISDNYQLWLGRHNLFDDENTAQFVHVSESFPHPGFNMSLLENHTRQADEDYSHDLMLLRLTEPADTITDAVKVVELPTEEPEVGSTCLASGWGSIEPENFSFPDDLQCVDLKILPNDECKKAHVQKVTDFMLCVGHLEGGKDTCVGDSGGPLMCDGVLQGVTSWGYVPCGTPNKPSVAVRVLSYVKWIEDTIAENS
Procedure, shortened: as §1

Thrombin = Thrombin (Homo sapiens, UniProt P00734); experiment: Related protease inhibition: Thrombin (fluorogenic substrate at Km); format: biochemical; conditions: class symbols per Table 18
Method: as §2

[1] = Pharmacokinetics after single intravenous and single oral dose in rats; format: in vivo; conditions: rat, plasma, male Sprague-Dawley rats, single iv (nominal 1 mg/kg) and single po (nominal 5 mg/kg) dose; for half-life: Phoenix WinNonlin; for bioavailability: oral bioavailability, 10% DMSO/10% Cremophor EL/80% SWFI
Method: Pharmacokinetic studies of the compounds in Table 19 were performed to assess the pharmacokinetics following a single intravenous dose and a single oral dose in male Sprague-Dawley rats. Two rats were given a single intravenous dose of 1 mL/kg of a nominal 1 mg/ml (1 mg/kg) composition of test compound in 10% DMSO/10% Cremophor EL/80% SWFI vehicle. Two rats were given a single oral dose of 5 ml/kg of a nominal 1 mg/mL (5 mg/kg) composition of test compound in 10% DMSO/10% Cremophor EL/80% SWFI vehicle.
Following intravenous dosing, blood samples were collected over a period of 12 h. Sample times were 2, 5, 15 and 30 min then 1, 2, 4, 6, and 12 h. Following oral dosing, blood samples were collected over a period of 24 h. Sample times were 5, 15 and 30 min then 1, 2, 4, 6, 8, 12 and 24 h.
Following collection, blood samples were centrifuged and the plasma fraction analysed for concentration of test compound by LCMS. Oral bioavailability and half-life calculations from these studies were obtained using Phoenix WinNonlin (v8.0) and are shown below: […]

Plasma Kallikrein = biological target: T2, Plasma Kallikrein (Homo sapiens, UniProt P03952); experiment: Related protease inhibition: Plasma Kallikrein (fluorogenic substrate at Km); format: biochemical; conditions: class symbols per Table 18, read-out: IC50 (human PKal)
T2 construct: FXIIa converts plasma prekallikrein (PK) to plasma kallikrein (PKa)
T2 sequence (P03952 391-638 limits assumed): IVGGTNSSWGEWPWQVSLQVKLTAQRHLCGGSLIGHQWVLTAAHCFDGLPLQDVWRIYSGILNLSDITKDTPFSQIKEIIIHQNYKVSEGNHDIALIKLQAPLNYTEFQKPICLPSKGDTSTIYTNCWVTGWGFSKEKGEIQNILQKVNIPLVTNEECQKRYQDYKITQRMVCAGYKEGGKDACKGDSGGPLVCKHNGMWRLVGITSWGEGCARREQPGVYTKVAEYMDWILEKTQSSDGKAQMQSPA
T2 sequence (P03952 20-390 partner limits assumed): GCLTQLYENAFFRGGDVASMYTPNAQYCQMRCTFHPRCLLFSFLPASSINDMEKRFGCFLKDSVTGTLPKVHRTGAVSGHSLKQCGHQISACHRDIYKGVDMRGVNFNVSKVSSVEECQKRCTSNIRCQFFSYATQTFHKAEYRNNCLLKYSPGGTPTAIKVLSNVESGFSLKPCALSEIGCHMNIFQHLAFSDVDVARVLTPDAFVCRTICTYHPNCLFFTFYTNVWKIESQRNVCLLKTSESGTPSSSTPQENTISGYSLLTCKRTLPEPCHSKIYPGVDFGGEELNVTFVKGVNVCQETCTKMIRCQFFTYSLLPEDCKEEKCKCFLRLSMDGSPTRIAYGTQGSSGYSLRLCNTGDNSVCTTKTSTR
Procedure, shortened: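 Each human protease was incubated with substrate and test compound over a concentration range; fluorescence release was then recorded for 5 min at 25° C. Rates were normalized to uninhibited enzyme (100%) to derive IC50.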

FXa, sequence (P00742 235-488 limits assumed): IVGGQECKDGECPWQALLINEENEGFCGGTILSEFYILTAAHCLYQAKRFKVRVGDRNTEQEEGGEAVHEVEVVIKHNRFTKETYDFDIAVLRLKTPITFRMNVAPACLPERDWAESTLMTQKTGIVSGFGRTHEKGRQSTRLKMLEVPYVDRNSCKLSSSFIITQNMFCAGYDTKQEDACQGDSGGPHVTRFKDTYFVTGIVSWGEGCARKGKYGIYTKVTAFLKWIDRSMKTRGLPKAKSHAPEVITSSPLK
FXa, sequence (P00742 41-179 partner limits assumed): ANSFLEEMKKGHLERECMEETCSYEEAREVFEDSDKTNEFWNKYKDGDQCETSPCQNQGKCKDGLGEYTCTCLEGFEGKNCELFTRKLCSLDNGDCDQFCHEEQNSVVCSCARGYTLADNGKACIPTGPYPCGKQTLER

Row | IC50 (FXa) [µM] | IC50 (Human Factor XIIa) [µM] | IC50 (Trypsin) [µM] | IC50 (Plasmin) [µM] | IC50 (KLK1) [µM] | IC50 (Thrombin) [µM] | half-life [1] [h] | bioavailability [1] [%] | IC50 (Plasma Kallikrein) [µM] | SMILES
1 | > 40 | 0.1 to 0.3 | 10 to 40 | > 40 | 10 to 40 | > 40 | 2.55 | 40.5 | > 40 | Cn1ccc(OCC23CCOC(CNc4cccc5c(N)nccc45)(C2)C3)cc1=O [Example 10906, 4-((1-(((1-aminoisoquinolin-5-yl)amino)methyl)-2-oxabicyclo[3.1.1]heptan-5-yl)methoxy)-1-methylpyridin-2(1H)-one]
2 | 10 to 40 | 0.01 to 0.1 | > 40 | > 40 | 3 to 10 | 10 to 40 | 5.7 | 33.5 | > 40 | Nc1nccc2c(NCC34CC(COc5ccc6nccn6c5)(CO3)C4)cccc12 [Example 6602, 5-N-[[4-(Imidazo[1,2-a]pyridin-6-yloxymethyl)-2-oxabicyclo[2.1.1]hexan-1-yl]methyl]isoquinoline-1,5-diamine]
3 | > 40 | 0.01 to 0.1 | – | – | 3 to 10 | > 40 | 1.14 | 8.2 | > 40 | Cn1ccc(OCC23CN(C(=O)OCc4ccccc4)C(CNc4cccc5c(N)nccc45)(C2)C3)cc1=O [Example 12001, benzyl 1-(((1-aminoisoquinolin-5-yl)amino)methyl)-4-(((1-methyl-2-oxo-1,2-dihydropyridin-4-yl)oxy)methyl)-2-azabicyclo[2.1.1]hexane-2-carboxylate]
4 | – | 0.01 to 0.1 | – | – | – | – | 1.08 | 0.4 | – | Cn1ccc(OCC23CN(C(=O)CCc4ccccc4)C(CNc4cccc5c(N)nccc45)(C2)C3)cc1=O [Example 12016, 4-((1-(((1-aminoisoquinolin-5-yl)amino)methyl)-2-(3-phenylpropanoyl)-2-azabicyclo[2.1.1]hexan-4-yl)methoxy)-1-methylpyridin-2(1H)-one]
5 | 10 to 40 | 0.1 to 0.3 | – | – | 3 to 10 | 3 to 10 | 7.36 | 41 | > 40 | Nc1nccc2c(NCC34CC(COC5CCn6ccnc6C5)(C3)C4)cccc12 (single isomer, unassigned) [Example 1002.1, (S*)-N5-((3-(((5,6,7,8-tetrahydroimidazo[1,2-a]pyridin-7-yl)oxy)methyl)bicyclo[1.1.1]pentan-1-yl)methyl)isoquinoline-1,5-diamine]
6 | 10 to 40 | 0.01 to 0.1 | – | – | 3 to 10 | 10 to 40 | 11.9 | 9.3 | > 40 | Nc1nccc2c(NCC34CC(COc5ccn6ccnc6c5)(CCO3)C4)cccc12 [Example 10901, N5-((5-((Imidazo[1,2-a]pyridin-7-yloxy)methyl)-2-oxabicyclo[3.1.1]heptan-1-yl)methyl)isoquinoline-1,5-diamine]
7 | > 40 | 0.1 to 0.3 | 10 to 40 | > 40 | 10 to 40 | > 40 | – | – | > 40 | Cn1ccc(OCC23CCOC(CNc4cccc5c(N)nccc45)(C2)C3)nc1=O [Example 10940, 4-((1-(((1-aminoisoquinolin-5-yl)amino)methyl)-2-oxabicyclo[3.1.1]heptan-5-yl)methoxy)-1-methylpyrimidin-2(1H)-one]
8 | > 40 | 0.1 to 0.3 | 10 to 40 | > 40 | 10 to 40 | > 40 | – | – | > 40 | Cn1ccc(OCC23CC(CNc4cccc5c(N)nccc45)(CCO2)C3)cc1=O [Example 11001, 4-((5-(((1-aminoisoquinolin-5-yl)amino)methyl)-2-oxabicyclo[3.1.1]heptan-1-yl)methoxy)-1-methylpyridin-2(1H)-one]
9 | > 40 | 0.1 to 0.3 | > 40 | > 40 | 3 to 10 | > 40 | – | – | > 40 | CN1Cc2cc(OCC34COC(CNc5cccc6c(N)nccc56)(C3)C4)ccc2C1=O [Example 6621, 5-((1-(((1-aminoisoquinolin-5-yl)amino)methyl)-2-oxabicyclo[2.1.1]hexan-4-yl)methoxy)-2-methylisoindolin-1-one]
10 | > 40 | 0.1 to 0.3 | > 40 | > 40 | 10 to 40 | > 40 | – | – | > 40 | Nc1nccc2c(N3CCC4(CC(COc5ccn6ccnc6c5)C4)C3)cccc12 (single isomer, unassigned) [Example 8806, 5-(trans*-2-((imidazo[1,2-a]pyridin-7-yloxy)methyl)-6-azaspiro[3.4]octan-6-yl)isoquinolin-1-amine]
11 | > 40 | 0.1 to 0.3 | – | – | 3 to 10 | > 40 | 3.13 | 42.6 | > 40 | Nc1nccc2c(NCC34COC(COc5ccc6nccn6c5)(C3)C4)cccc12 [Example 2022, 5-N-[[1-(Imidazo[1,2-a]pyridin-6-yloxymethyl)-2-oxabicyclo[2.1.1]hexan-4-yl]methyl]isoquinoline-1,5-diamine]
12 | 10 to 40 | 0.01 to 0.1 | 10 to 40 | > 40 | 3 to 10 | > 40 | – | – | > 40 | Nc1nccc2c(NCC34CC(COc5ccc6c(c5)CNC6=O)(CO3)C4)cccc12 [Example 6618, 5-[[1-[[(1-Aminoisoquinolin-5-yl)amino]methyl]-2-oxabicyclo[2.1.1]hexan-4-yl]methoxy]-2,3-dihydroisoindol-1-one]
13 | > 40 | 0.01 to 0.1 | – | – | 3 to 10 | > 40 | 10.5 | 19.9 | > 40 | Nc1nccc2c(NCC34COC(COc5ccn6ccnc6c5)(C3)C4)cccc12 [Example 2020, 5-N-[[1-(Imidazo[1,2-a]pyridin-7-yloxymethyl)-2-oxabicyclo[2.1.1]hexan-4-yl]methyl]isoquinoline-1,5-diamine]
14 | > 40 | 0.3 to 1 | 3 to 10 | > 40 | 3 to 10 | > 40 | – | – | > 40 | Nc1nccc2c(NCC34CC(COc5ccc6nnc(C(F)F)n6c5)(CO3)C4)cccc12 [Example 6620, N5-((4-(((3-(difluoromethyl)-[1,2,4]triazolo[4,3-a]pyridin-6-yl)oxy)methyl)-2-oxabicyclo[2.1.1]hexan-1-yl)methyl)isoquinoline-1,5-diamine]
